Assay results taken from patent publication US6335373B1, “Process to produce stabilized carnosic acid in high concentration” (Lycored Natural Products Industries, Ltd., priority 2000, dated 2002).

Legend:
[1] = Stabilization of carnosic acid in 60% ethanol rosemary extract with added acids, kept in the dark; format: physicochemical
Procedure: To 4.0 litre of ethanol (60%) are added 500 gr. of dried and finely ground rosemary leaves, having a concentration of 4.3% carnosic acid. Extraction is done for 3 hours at room temperature. 3.22 litre of extract are obtained by vacuum filtration of the biomass. The concentrate is divided to 200 ml. portions where different acids at various concentrations are added to these portions. All portions are kept in the dark and the variations in the carnosic acid concentrations of the different portions are checked. […] Only under acidic conditions is the concentration of carnosic acid retained where the optimal acids are phosphoric and ascorbic acid.

[2] = Exposure of carnosic acid in an extract to room temperature and light; format: physicochemical; details: pH of the extract above 6
[3] = identified by Brieskorn and Domling in 1964; cited from earlier work
stephilococus = details: against stephilococus and dental caries, reported; cited from earlier work

CC(C)c1cc2c(c(O)c1O)[C@@]1(C(=O)O)CCCC(C)(C)[C@@H]1CC2 [carnosic acid]
Concentration of Carnosic ([1]; Acetic 1%, +2 Hours): 4770 µg/mL
Concentration of Carnosic ([1]; Acetic 1%, +5 Hours): 4740 µg/mL
Concentration of Carnosic ([1]; Acetic 1%, +1 hour): 4760 µg/mL
Concentration of Carnosic ([1]; Acetic 1%, +24 hour): 4590 µg/mL
Concentration of Carnosic ([1]; Acetic 1%, +48 hours): 4260 µg/mL
Concentration of Carnosic ([1]; Acetic 1%, Time Zero): 4800 µg/mL
Concentration of Carnosic ([1]; Acetic 2%, +2 Hours): 4690 µg/mL
Concentration of Carnosic ([1]; Acetic 2%, +5 Hours): 4710 µg/mL
Concentration of Carnosic ([1]; Acetic 2%, +1 hour): 4790 µg/mL
Concentration of Carnosic ([1]; Acetic 2%, +24 hour): 4490 µg/mL
Concentration of Carnosic ([1]; Acetic 2%, +48 hours): 4230 µg/mL
Concentration of Carnosic ([1]; Acetic 2%, Time Zero): 4800 µg/mL
Concentration of Carnosic ([1]; Ascorbic 0.05%, +2 Hours): 4710 µg/mL
Concentration of Carnosic ([1]; Ascorbic 0.05%, +5 Hours): 4680 µg/mL
Concentration of Carnosic ([1]; Ascorbic 0.05%, +1 hour): 4750 µg/mL
Concentration of Carnosic ([1]; Ascorbic 0.05%, +24 hour): 4780 µg/mL
Concentration of Carnosic ([1]; Ascorbic 0.05%, +48 hours): 4790 µg/mL
Concentration of Carnosic ([1]; Ascorbic 0.05%, Time Zero): 4800 µg/mL
Concentration of Carnosic ([1]; Ascorbic 0.1%, +2 Hours): 4710 µg/mL
Concentration of Carnosic ([1]; Ascorbic 0.1%, +5 Hours): 4720 µg/mL
Concentration of Carnosic ([1]; Ascorbic 0.1%, +1 hour): 4740 µg/mL
Concentration of Carnosic ([1]; Ascorbic 0.1%, +24 hour): 4790 µg/mL
Concentration of Carnosic ([1]; Ascorbic 0.1%, +48 hours): 4790 µg/mL
Concentration of Carnosic ([1]; Ascorbic 0.1%, Time Zero): 4800 µg/mL
Concentration of Carnosic ([1]; Ascorbic 0.5%, +2 Hours): 4830 µg/mL
Concentration of Carnosic ([1]; Ascorbic 0.5%, +5 Hours): 4820 µg/mL
Concentration of Carnosic ([1]; Ascorbic 0.5%, +1 hour): 4860 µg/mL
Concentration of Carnosic ([1]; Ascorbic 0.5%, +24 hour): 4810 µg/mL
Concentration of Carnosic ([1]; Ascorbic 0.5%, +48 hours): 4820 µg/mL
Concentration of Carnosic ([1]; Ascorbic 0.5%, Time Zero): 4800 µg/mL
Concentration of Carnosic ([1]; Ascorbic 1%, +2 Hours): 4840 µg/mL
Concentration of Carnosic ([1]; Ascorbic 1%, +5 Hours): 4840 µg/mL
Concentration of Carnosic ([1]; Ascorbic 1%, +1 hour): 4830 µg/mL
Concentration of Carnosic ([1]; Ascorbic 1%, +24 hour): 4820 µg/mL
Concentration of Carnosic ([1]; Ascorbic 1%, +48 hours): 4800 µg/mL
Concentration of Carnosic ([1]; Ascorbic 1%, Time Zero): 4800 µg/mL
Concentration of Carnosic ([1]; Citric 0.1%, +2 Hours): 4560 µg/mL
Concentration of Carnosic ([1]; Citric 0.1%, +5 Hours): 4490 µg/mL
Concentration of Carnosic ([1]; Citric 0.1%, +1 hour): 4730 µg/mL
Concentration of Carnosic ([1]; Citric 0.1%, +24 hour): 4270 µg/mL
Concentration of Carnosic ([1]; Citric 0.1%, +48 hours): 4130 µg/mL
Concentration of Carnosic ([1]; Citric 0.1%, Time Zero): 4800 µg/mL
Concentration of Carnosic ([1]; Citric 0.5%, +2 Hours): 4580 µg/mL
Concentration of Carnosic ([1]; Citric 0.5%, +5 Hours): 4530 µg/mL
Concentration of Carnosic ([1]; Citric 0.5%, +1 hour): 4760 µg/mL
Concentration of Carnosic ([1]; Citric 0.5%, +24 hour): 4510 µg/mL
Concentration of Carnosic ([1]; Citric 0.5%, +48 hours): 4220 µg/mL
Concentration of Carnosic ([1]; Citric 0.5%, Time Zero): 4800 µg/mL
Concentration of Carnosic ([1]; Citric 1%, +2 Hours): 4530 µg/mL
Concentration of Carnosic ([1]; Citric 1%, +5 Hours): 4560 µg/mL
Concentration of Carnosic ([1]; Citric 1%, +1 hour): 4760 µg/mL
Concentration of Carnosic ([1]; Citric 1%, +24 hour): 4560 µg/mL
Concentration of Carnosic ([1]; Citric 1%, +48 hours): 4420 µg/mL
Concentration of Carnosic ([1]; Citric 1%, Time Zero): 4800 µg/mL
Concentration of Carnosic ([1]; Control, acid 0%, +2 Hours): 4420 µg/mL
Concentration of Carnosic ([1]; Control, acid 0%, +5 Hours): 4270 µg/mL
Concentration of Carnosic ([1]; Control, acid 0%, +1 hour): 4510 µg/mL
Concentration of Carnosic ([1]; Control, acid 0%, +24 hour): 3550 µg/mL
Concentration of Carnosic ([1]; Control, acid 0%, +48 hours): 2780 µg/mL
Concentration of Carnosic ([1]; Control, acid 0%, Time Zero): 4800 µg/mL
Concentration of Carnosic ([1]; HCI 0.1%, +2 Hours): 4680 µg/mL
Concentration of Carnosic ([1]; HCI 0.1%, +5 Hours): 4520 µg/mL
Concentration of Carnosic ([1]; HCI 0.1%, +1 hour): 4720 µg/mL
Concentration of Carnosic ([1]; HCI 0.1%, +24 hour): 3690 µg/mL
Concentration of Carnosic ([1]; HCI 0.1%, +48 hours): 2930 µg/mL
Concentration of Carnosic ([1]; HCI 0.1%, Time Zero): 4800 µg/mL
Concentration of Carnosic ([1]; HCI 1%, +2 Hours): 4720 µg/mL
Concentration of Carnosic ([1]; HCI 1%, +5 Hours): 4530 µg/mL
Concentration of Carnosic ([1]; HCI 1%, +1 hour): 4780 µg/mL
Concentration of Carnosic ([1]; HCI 1%, +24 hour): 4540 µg/mL
Concentration of Carnosic ([1]; HCI 1%, +48 hours): 4390 µg/mL
Concentration of Carnosic ([1]; HCI 1%, Time Zero): 4800 µg/mL
Concentration of Carnosic ([1]; HCI 2%, +2 Hours): 4700 µg/mL
Concentration of Carnosic ([1]; HCI 2%, +5 Hours): 4580 µg/mL
Concentration of Carnosic ([1]; HCI 2%, +1 hour): 4760 µg/mL
Concentration of Carnosic ([1]; HCI 2%, +24 hour): 4460 µg/mL
Concentration of Carnosic ([1]; HCI 2%, +48 hours): 4420 µg/mL
Concentration of Carnosic ([1]; HCI 2%, Time Zero): 4800 µg/mL
Concentration of Carnosic ([1]; Phosphoric 1%, +2 Hours): 4790 µg/mL
Concentration of Carnosic ([1]; Phosphoric 1%, +5 Hours): 4760 µg/mL
Concentration of Carnosic ([1]; Phosphoric 1%, +1 hour): 4820 µg/mL
Concentration of Carnosic ([1]; Phosphoric 1%, +24 hour): 4780 µg/mL
Concentration of Carnosic ([1]; Phosphoric 1%, +48 hours): 4790 µg/mL
Concentration of Carnosic ([1]; Phosphoric 1%, Time Zero): 4800 µg/mL
Concentration of Carnosic ([1]; Phosphoric 2%, +2 Hours): 4790 µg/mL
Concentration of Carnosic ([1]; Phosphoric 2%, +5 Hours): 4750 µg/mL
Concentration of Carnosic ([1]; Phosphoric 2%, +1 hour): 4770 µg/mL
Concentration of Carnosic ([1]; Phosphoric 2%, +24 hour): 4810 µg/mL
Concentration of Carnosic ([1]; Phosphoric 2%, +48 hours): 4780 µg/mL
Concentration of Carnosic ([1]; Phosphoric 2%, Time Zero): 4800 µg/mL
period for which carnosic acid is stable ([1]; in acidic polar solution containing water, lower alkyl alcohol and acid): more than 24 hours
decrease of carnosic acid ([1]; lack of acid): 50%
change in concentration of carnosic acid [2]: marked decrease
antioxidant activity [3]: very potent antioxidant
antibiotic action (stephilococus): antibiotic action
